Source: ChEMBL document CHEMBL3608233, “Potent benzoazepinone γ-secretase modulators with improved bioavailability” (Bioorg Med Chem Lett, 2015)
In brackets after ≈: the same amount, converted by molar mass.

Tests used:
[1] = in vivo; settings: APP YAC Tg, mouse, brain, 50 mg/kg
[2] = in vivo; settings: APP YAC Tg, mouse, plasma, 50 mg/kg
[3] = Ratio of drug level in brain to plasma in APP YAC Tg mouse model at 30 mg/kg after 6 hrs; format: ADME, organism-based; settings: brain and plasma, read-out: BPR
[4] = Drug metabolism in dog hepatocytes assessed as oxidation of benzoazepinone; format: ADME, cell-based, Canis lupus familiaris, Hepatocyte
[5] = Drug metabolism in dog urine assessed as oxidation of benzoazepinone; format: ADME, tissue-based, Canis lupus familiaris
[6] = Drug metabolism in dog urine assessed as oxidation of methylimidazole; format: ADME, tissue-based, Canis lupus familiaris
[7] = Drug metabolism in dog urine assessed as formation of methyl ester cleavage product; format: ADME, tissue-based, Canis lupus familiaris
[8] = Drug metabolism in dog hepatocytes assessed as formation of methyl ester cleavage product; format: ADME, cell-based, Canis lupus familiaris, Hepatocyte
[9] = Drug uptake in brain of APP YAC Tg mouse model at 30 mg/kg after 6 hrs; format: ADME, organism-based; settings: read-out: Drug uptake
[10] = Plasma concentration in APP YAC Tg mouse model at 30 mg/kg after 6 hrs; format: ADME, organism-based
[11] = species on record: Canis familiaris; settings: dog, in vivo, po, 0.5 mg/kg
[12] = in vivo; settings: Sprague-Dawley, rat, iv, 1 mg/kg
[13] = in vivo; settings: Sprague-Dawley, rat, iv, 1 mg/kg; remark: listed apart in the source
[14] = in vivo; settings: Sprague-Dawley, rat
[15] = in vivo; settings: Sprague-Dawley, rat, po, 2 mg/kg
[16] = in vivo; settings: beagle, dog, iv
[17] = in vivo; settings: beagle, dog, iv; remark: listed apart in the source
[18] = in vivo; settings: beagle, dog
[19] = physchem; settings: buffer, pH 7
[20] = physchem; settings: buffer, pH 2
[21] = in vitro; settings: pig, LLC-PK1
[22] = in vitro; settings: rat, hepatocytes
[23] = in vitro; settings: dog, hepatocytes
[24] = in vitro; settings: human, hepatocytes
[25] = in vivo; settings: APP YAC Tg, mouse, brain, 100 mg/kg
[26] = in vivo; settings: APP YAC Tg, mouse, plasma, 100 mg/kg

Cc1cn(-c2ccc(-c3cn([C@H]4CCc5c(F)cccc5N(CC(F)(F)F)C4=O)nn3)cc2F)cn1
concentration at 6 h [1]: 6.8 µM
concentration at 6 h [2]: 15 µM

COc1cc(-c2cn([C@H]3CCc4c(F)cccc4N(CC(F)(F)F)C3=O)nn2)ccc1-n1cnc(C)c1
Kp at 6 h [3]: 0.3
Drug metabolism [4]: metabolite_detected
Drug metabolism [5]: metabolite_detected
Drug metabolism [6]: metabolite_detected
Drug metabolism [7]: metabolite_notdetected
Drug metabolism [8]: metabolite_notdetected
concentration at 6 h [9]: 1.6 µM
concentration at 6 h [10]: 5.1 µM
F [11]: BLD
clearance [12]: 2.28 L/h/kg
Vd [13]: 4.8 L/kg
half-life [14]: 48 min
bioavailability [15]: 100%
clearance [16]: 5.88 L/h/kg
Vd [17]: 5.6 L/kg
half-life [18]: 42 min
solubility [19]: 4.2 µM (≈ 2.16 µg/mL)
solubility [20]: 170 µM (≈ 87.5 µg/mL)
Papp [21]: 210 nm/s
CLint scaled [22]: 12.6 L/h/kg
CLint scaled [23]: 24 L/h/kg
CLint scaled [24]: 5.64 L/h/kg

COc1cc(-c2cn([C@H]3CCc4c(F)cccc4N(CC(F)(F)F)C3=O)nn2)ccc1-n1cnc(C(F)(F)F)c1
concentration at 6 h [25]: 0.87 µM
concentration at 6 h [26]: 4.5 µM
